Laboratory results from ChEMBL document CHEMBL1201862, “PubChem BioAssay data set” (2004).
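Assay format: 96-well plates, 48-hour exposure. GI50 is the concentration that inhibits growth by half.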 The source made the active and inactive calls. No stated cut-off is given here; in the data, active = GI50 up to about 1.1 µM and inactive = higher.

Assays:
Test in all cases: NCI tumour cell line growth inhibition, 48 h
A498 = system: A498
BT-549 = system: BT-549
CAKI-1 = system: CAKI-1
HCT-116 = system: HCT-116
KM12 = system: KM12
M14 = system: M14
MCF7 = system: MCF7
MDA-MB-435 = system: MDA-MB-435
MDA-N = system: MDA-N
NCI-H23 = system: NCI-H23
NCI-H522 = system: NCI-H522
OVCAR-5 = system: OVCAR-5
OVCAR-8 = system: OVCAR-8
SF-539 = system: SF-539
SK-OV-3 = system: SK-OV-3
SN12C = system: SN12C
SNB-19 = system: SNB-19
UACC-62 = system: UACC-62
RPMI-8226 = system: RPMI-8226

Measured: GI50

O=C(N/N=C/c1ccc(O)cc1)NNCCO
inactive: A498 > 100 µM | BT-549 > 100 µM | CAKI-1 > 100 µM | HCT-116 > 100 µM | KM12 > 100 µM | M14 > 100 µM | MCF7 > 100 µM | MDA-MB-435 > 100 µM | MDA-N > 100 µM | NCI-H23 > 100 µM | NCI-H522 > 100 µM | OVCAR-5 > 100 µM | OVCAR-8 > 100 µM | SF-539 > 100 µM | SK-OV-3 > 100 µM | SN12C > 100 µM | SNB-19 > 100 µM | UACC-62 > 100 µM

COC(=O)C1=NN2c3ccccc3CN([C@@H](C)c3ccccc3)C(=O)[C@H]2[C@@H]1C
inactive: A498 > 100 µM | BT-549 24.7 µM | CAKI-1 33.7 µM | HCT-116 33.7 µM | KM12 31 µM | M14 35.2 µM | MCF7 36.3 µM | MDA-MB-435 32.1 µM | MDA-N 34.5 µM | NCI-H23 33.1 µM | NCI-H522 21.1 µM | OVCAR-5 37.6 µM | OVCAR-8 34.7 µM | SF-539 40.5 µM | SK-OV-3 62.5 µM | SN12C 70.6 µM | SNB-19 74.6 µM | UACC-62 40.6 µM

O=C(Cc1ccccc1)c1ccc2[nH]c(=O)oc2c1
inactive: A498 > 100 µM | BT-549 48.6 µM | CAKI-1 59.6 µM | HCT-116 43.8 µM | KM12 19 µM | M14 47 µM | MCF7 43.5 µM | MDA-MB-435 33.7 µM | MDA-N 39.3 µM | NCI-H23 51.3 µM | OVCAR-5 > 100 µM | OVCAR-8 23.2 µM | RPMI-8226 9.23 µM | SF-539 32.2 µM | SK-OV-3 76.2 µM | SN12C > 100 µM | UACC-62 58.5 µM

N#Cc1ccc(Oc2nc3ccc(C(F)(F)F)cc3nc2-c2ccccc2)cc1
inactive: A498 15.7 µM | BT-549 34.4 µM | CAKI-1 22.6 µM | HCT-116 15.3 µM | KM12 20.5 µM | M14 16.1 µM | MCF7 20.4 µM | MDA-MB-435 17.7 µM | MDA-N 23 µM | NCI-H23 16.5 µM | NCI-H522 15.6 µM | OVCAR-5 13.4 µM | OVCAR-8 14.9 µM | SF-539 29.8 µM | SK-OV-3 12.5 µM | SN12C 20.6 µM | SNB-19 21.8 µM | UACC-62 32.6 µM
